Results on one substance are retold here after patent US20050209237A1, “Method for decreasing capillary permeability in the retina” (priority 2002, published 2005).

The experiment relates to BRB breakdown in mice exposed to vascular endothelial growth factor (VEGF). Description: BRB breakdown quantitated with intraperitoneal [3H]-mannitol tracer in mice after intravitreal VEGF. It counts as in vivo, C57B/J6 mice. Conditions: gavage 50 mg/kg for three days prior to intravitreal VEGF 10^-6 M, [3H]-mannitol tracer at 6 hours. An excerpt:
Intraperitoneally administered radiolabeled tracer can be used to quantitate BRB breakdown in mice exposed to vascular endothelial growth factor (VEGF). This technique is particularly advantageous with neonatal mice because of the technical difficulty involved with intravascular injections. Also, the comparison of retinas from injected and control eyes to tissues without a blood-tissue barrier corrects for variations in the amount of isotope injected or absorbed into the circulation.
Ten six- to seven-week-old C57B/J6 mice (Jackson Labs, Bar Harbor, Me.) are weighed to determine the proper dosage of anesthesia and tracer required. Mice are anesthetized with a solution containing 25 mg/kg ketamine (Ketaset; Fort Dodge Animal Health, Fort Dodge, Iowa) and 4 mg/kg rompun (Tranquived; Vedco, St. Joseph, Mo.) diluted 1:10 in saline prior to injection. […]
One ml NCSII (Amersham, Chicago, Ill.) solubilizing solution is added to each vial and the vials are incubated overnight in a 50° C. water bath. […] The specimens are counted on a Wallace 1409 Liquid Scintillation Counter (Gaithersburg, :Md.).
The counts per mg tissue are determined for treated (with 4-pyridylmethyl-phthalazine derivative) and untreated retina, lung, and kidney. Ratios of these values for treated or untreated retina/lung or kidney and for lung/kidney are calculated. […]

4-pyridylmethyl-phthalazine: the retina/kidney ratio (VEGF/vehicle-treated 0.6806±0.1060, Student-t value 0.0201) is 0.3881±0.0436. Further, the “retina/lung ratio (cpm per mg of retina/cpm per mg of lung)” value (VEGF/vehicle-treated 0.8785±0.0946, Student-t value 0.0467) is given as 0.6326±0.0656.
